The results in this text go back to article PMC13336041, “Streptavidins Coordinate Biotin Sequestration and Self‐Resistance Within a Biotin‐Pathway Antibiotic Network” (Advanced Science, 2026).

pIC50, pKi: −log10 of the molar value.

The target of one assay is BioA (EcBioA) (Escherichia coli, UniProt P12995). As to the kind of experiment: BioA-BioD coupled enzyme assay with KAPA as substrate, LC-MS readout of desthiobiotin (IC50 […]). The assay is classed as biochemical.
Assay [1] has as its target BioA derived from S. lydicus (SlBioA). As to the kind of experiment: BioA-BioD coupled enzyme assay with KAPA as substrate, LC-MS readout. The assay is classed as biochemical, Streptomyces lydicus.
Assay [2] concerns the target streptavidin 2 (Sav2), residues 45-169 (S. avidinii). As to the kind of experiment: not stated; in solution; method not given.

Chain of BioA (EcBioA) (P12995 whole entry): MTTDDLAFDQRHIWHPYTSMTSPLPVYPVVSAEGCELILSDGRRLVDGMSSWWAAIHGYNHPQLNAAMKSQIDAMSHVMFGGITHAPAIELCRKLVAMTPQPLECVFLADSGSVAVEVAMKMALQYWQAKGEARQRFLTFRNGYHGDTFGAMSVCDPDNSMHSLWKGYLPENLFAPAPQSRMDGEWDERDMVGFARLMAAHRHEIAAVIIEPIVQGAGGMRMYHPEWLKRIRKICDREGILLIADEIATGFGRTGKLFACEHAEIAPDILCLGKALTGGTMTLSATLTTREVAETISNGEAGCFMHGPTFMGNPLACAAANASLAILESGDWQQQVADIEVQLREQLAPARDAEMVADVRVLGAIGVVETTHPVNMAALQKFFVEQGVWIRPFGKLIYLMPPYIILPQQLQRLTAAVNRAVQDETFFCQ

A word on the pKi: it is the Ki on a negative log10 scale, so that one unit is a factor of ten. The pIC50 is the negative decadic logarithm of the IC50, by convention in mol/L. Read a high pIC50 as a small IC50. Turning to `C[C@H](N)C(=O)CCCC[C@@H](C)C(=O)O` [compound 5, α-methyl-KAPA], the pKi at BioA (EcBioA) is 4.83. In assay [1], this compound showed a pIC50 of 5.19.
As usually defined, the stoichiometry N is the number of molecules, sites or subunits per partner or assembly. For “streptavidin 2 (Sav2), residues 45-169 (domain or fragment)”, the stoichiometry N in assay [2] is 4.
